As a reminder, the EC50 is the concentration that produces a half-maximal response. In general, EC90 refers to the concentration needed for an effect of 90%. A higher EC90 goes with weaker potency.

This is an account of results in patent US20030207813A1, “Retroviral protease inhibitor combinations” (priority 1995, published 2003).

Holding throughout (assay type): cell-based, HIV-1
The subject of assay [1] is NL4(P37-538). Nature of the assay: Viral isolate resistance assay per Markowitz et al., NL4(P37-538). As to conditions: Human immunodeficiency virus 1; Table 9; selected against Example 10, 37 passages; read-out: Virus Isolate (EC50 nM) NL4(P37-538). An excerpt: (§1) RF represents the HIV-1 strain HIV-LRF and RFR represents a mixture of resistant strains obtained by selection of RF against the compound of Example 1. RFR comprises a mixture of viral strains having protease genotypes of G48V (14/40 clones); G48V, V82A (18/40 clones); G48V, L90S (2/40 clones); G48V, 154T, V82A (1/40 clones); G48M (1/40 clones); G48V, Q61H (1/40 clones); V13I, G48V (1/40 clones); G48V, F53L, V82A (1/40 clones); and G48V, V82A, C95Y (1/40 clones). RFR2 represents a mixture of resistant strains obtained by cloning RFR by three rounds of growth at limiting dilution. RFR2 comprises a mixture of viral strains having protease genotypes of G48V, V82A (13/15 clones); G17E, G48V, V82A (1/15 clones); and G48V, V82A, N37D, N88D (1/15 clones). RFRR represents a mixture of resistant strains obtained by selection of RF against the compounds of Examples 1 and 2 and then cloning by three rounds of growth at limiting dilution. RFRR comprises a mixture of viral strains having protease genotypes of G48V, 154T, L63P, V82A (7/9 clones); G48V, 154T, L63P, V82A, N88S (1/9 clones); and G48V, 154T, L63P, G73M, V82A (1/9 clones). SF162 represents the HIV-1 strain SF-162 and SF162R represents a mixture of resistant strains obtained by selection of SF162 against the compound of Example 1. SF162R comprises a mixture of viral strains having protease genotypes of M461, F53L, L63P, A71V, N88D (2/3 clones); and M46I, F53L, L63P, A71V, N88D, Q92R (1/3 clones). 89-959 represents the HIV-1 strain 89-959 and 89-959R represents a mixture of resistant strains obtained by selection of 89-959 against the compound of Example 2. 89-959R comprises a mixture of viral strains having protease genotypes of N88S (4/5 clones); and D25N, T26A, D30N, D37N, R41K, G73D, R87K, N88S (1/4 clones). NL4 represents the HIV-1 strain HIV-1NL4-3. NL4(G48V) represents a strain having a synthetically generated site-directed mutation in the protease from glycine to valine at amino acid position number 48. NL4(I84V) represents a strain having a synthetically generated site-directed mutation in the protease from isoleucine to valine at amino acid position number 84. NL4(R8Q,M46I) represents a strain having synthetically generated site-directed mutations in the protease from arginine to glutamine at amino acid position number 8 and methionine to isoleucine at amino acid position number 46. NL4(P22-538) represents a mixture of resistant strains obtained by selection of HIV-1NL4-3 against the compound of Example 10 after 22 passages comprising protease genotypes M46I, L63P, A71V, V82F, I84V (4/10); M46I, L63P, V82F, I84V (3/10); and M46I, A71V, V82F, I84V (3/10). NL4(P37-538) represents resistant strains obtained by selection of HIV-1NL4-3 against the compound of Example 10 after 37 passages comprising protease genotype M46I, L63P, A71V, 184A. NL4(538/524) represents resistant strains obtained by selection of NL4(P22-538) against the compound of Example 5 after 24 passages comprising protease genotype M46I, L63P, A71V, 184A. NL4(538/P7-AG) represents a mixture of resistant strains obtained by selection of NL4(P22-538) against the compound of Example 12 after 7 passages comprising protease genotypes M46I, L63P, A71V, 184A; and V321, V82I. NL4(538/P24-AG) represents resistant strains obtained by selection of NL4(P22-538) against the compound of Example 12 after 24 passages comprising protease genotype M46I, L63P, A71V, 184A. NLA(P19-003) represents resistant strains obtained by selection of HIV-1^NL4-3 against the compound of Example 9 after 19 passages comprising protease genotype R8K, M46I. NL4(P34-003) represents resistant strains obtained by selection of HIV-1^NL4-3 against the compound of Example 9 after 34 passages comprising protease genotype R8K, M46I, L63P, A71V, L90M.
The viral isolate resistance results summarized in Tables 7-11 were generated according to the assay procedures described by Markowitz et al., Journal of Virology, vol. […]

Assay [2] concerns NL4(G48V). Put plainly: Viral isolate resistance assay per Markowitz et al., NL4(G48V). Conditions: Human immunodeficiency virus 1, Table 7. An excerpt: (§2) RF represents the HIV-1 strain HIV-LRF and RFR represents a mixture of resistant strains obtained by selection of RF against the compound of Example 1. […] RFR2 represents a mixture of resistant strains obtained by cloning RFR by three rounds of growth at limiting dilution. […] RFRR represents a mixture of resistant strains obtained by selection of RF against the compounds of Examples 1 and 2 and then cloning by three rounds of growth at limiting dilution. […] SF162 represents the HIV-1 strain SF-162 and SF162R represents a mixture of resistant strains obtained by selection of SF162 against the compound of Example 1. […] 89-959 represents the HIV-1 strain 89-959 and 89-959R represents a mixture of resistant strains obtained by selection of 89-959 against the compound of Example 2. […] NL4 represents the HIV-1 strain HIV-1NL4-3. NL4(G48V) represents a strain having a synthetically generated site-directed mutation in the protease from glycine to valine at amino acid position number 48. NL4(I84V) represents a strain having a synthetically generated site-directed mutation in the protease from isoleucine to valine at amino acid position number 84. NL4(R8Q,M46I) represents a strain having synthetically generated site-directed mutations in the protease from arginine to glutamine at amino acid position number 8 and methionine to isoleucine at amino acid position number 46.

In assay [3] the test system is NL4(538/P24-AG). Nature of the assay: Viral isolate resistance assay per Markowitz et al., NL4(538/P24-AG). Conditions: Human immunodeficiency virus 1; Table 10; NL4(P22-538) selected against Example 12, 24 passages.
Excerpt: as §1, with “NLA(P19-003) represents resistant strains obtained by selection of HIV-1^NL4-3 against the compound of Example 9 after 19 passages comprising protease genotype R8K, M46I. NL4(P34-003) represents resistant strains obtained by selection of HIV-1^NL4-3 against the compound of Example 9 after 34 passages comprising protease genotype R8K, M46I, L63P, A71V, L90M.” left out

Assay [4] relates to NL4(538/524). Nature of the assay: Viral isolate resistance assay per Markowitz et al., NL4(538/524). As to conditions: Human immunodeficiency virus 1; Table 10; NL4(P22-538) selected against Example 5, 24 passages.
Excerpt: as §1, with “NLA(P19-003) represents resistant strains obtained by selection of HIV-1^NL4-3 against the compound of Example 9 after 19 passages comprising protease genotype R8K, M46I. NL4(P34-003) represents resistant strains obtained by selection of HIV-1^NL4-3 against the compound of Example 9 after 34 passages comprising protease genotype R8K, M46I, L63P, A71V, L90M.” left out

For assay [5], the system named is NL4(I84V). Put plainly: Viral isolate resistance assay per Markowitz et al., NL4(I84V). Conditions: Human immunodeficiency virus 1, Table 7.
Excerpt: as §2

Assay [6] has as its system NL4(P22-538). Nature of the assay: Viral isolate resistance assay per Markowitz et al., NL4(P22-538). Conditions: Human immunodeficiency virus 1; Table 9; selected against Example 10, 22 passages; read-out: Virus Isolate (EC50 nM) NL4(P22-538).
Excerpt: as §1, with “NLA(P19-003) represents resistant strains obtained by selection of HIV-1^NL4-3 against the compound of Example 9 after 19 passages comprising protease genotype R8K, M46I. NL4(P34-003) represents resistant strains obtained by selection of HIV-1^NL4-3 against the compound of Example 9 after 34 passages comprising protease genotype R8K, M46I, L63P, A71V, L90M.” left out

Turning to `CC(C)(C)NC(=O)[C@@H]1CC2CCCC[C@@H]2CN1C[C@@H](O)[C@H](Cc1ccccc1)NC(=O)[C@H](CC(N)=O)NC(=O)c1ccc2ccccc2n1` (stereo in doubt) [Example 6, N-tert-Butyl decahydro-2-[2(R)-hydroxy-4-phenyl-3(S)-[[N-(2-quinolylcarbonyl)-L-asparaginyl]amino]butyl]-(4aR,8aS)-isoquinoline-3(S)-carboxamide], the 50% effective concentration (EC50) came to 2400 nM in assay [1], 2400 nM in assay [3], 2400 nM in assay [4] and 150 nM in assay [6]. In addition, the EC90 amounted to 150 nM in assay [2] and 90 nM in assay [5].
On to `CC(C)(C)NC(=O)[C@@H]1CN(Cc2cccnc2)CCN1C[C@@H](O)C[C@@H](Cc1ccccc1)C(=O)N[C@H]1c2ccccc2C[C@H]1O` [Example 5, N-(2(R)-Hydroxy-1(S)-indanyl)-2(R)-phenylmethyl-4(S)-hydroxy-5-(1-(4-(3-pyridylmethyl)-2(S)-N′-(t-butylcarboxamido)-piperazinyl))-pentaneamide], for which the EC50 came out at 6400 nM in assay [1], 6400 nM in assay [3], 6400 nM in assay [4] and 800 nM in assay [6]. Besides, the concentration for an effect of 90% (EC90) was determined as 160 nM in assay [2] and 640 nM in assay [5].
